Results taken from PubChem BioAssay AID743029 (The Scripps Research Institute Molecular Screening Center, 2013).

Columns and labels:
Test in all cases: CYP1A2, 2C9, 2D6, 3A4 inhibition – biochemical, LC-MS, ADME assay for V1a-R antagonist project, late-stage follow-up (AID 743029)
[1] = biological target: Cytochrome P450 1A2 (Homo sapiens) (UniProt P05177); conditions: human CYP isoforms, marker substrate metabolism, CYP1A2, at 10 µM, stronger effect = higher value
[2] = biological target: Cytochrome P450 2C9 (Homo sapiens) (UniProt P11712); conditions: human CYP isoforms, marker substrate metabolism, CYP2C9, at 10 µM, stronger effect = higher value
[3] = biological target: Cytochrome P450 2D6 (Homo sapiens) (UniProt P10635); conditions: human CYP isoforms, marker substrate metabolism, CYP2D6, at 10 µM, stronger effect = higher value
[4] = biological target: Cytochrome P450 3A4 (Homo sapiens) (UniProt P08684); conditions: human CYP isoforms, marker substrate metabolism, CYP3A4, at 10 µM, stronger effect = higher value
Chain of Cytochrome P450 3A4 (Homo sapiens) (P08684 whole entry, looked up, canonical isoform): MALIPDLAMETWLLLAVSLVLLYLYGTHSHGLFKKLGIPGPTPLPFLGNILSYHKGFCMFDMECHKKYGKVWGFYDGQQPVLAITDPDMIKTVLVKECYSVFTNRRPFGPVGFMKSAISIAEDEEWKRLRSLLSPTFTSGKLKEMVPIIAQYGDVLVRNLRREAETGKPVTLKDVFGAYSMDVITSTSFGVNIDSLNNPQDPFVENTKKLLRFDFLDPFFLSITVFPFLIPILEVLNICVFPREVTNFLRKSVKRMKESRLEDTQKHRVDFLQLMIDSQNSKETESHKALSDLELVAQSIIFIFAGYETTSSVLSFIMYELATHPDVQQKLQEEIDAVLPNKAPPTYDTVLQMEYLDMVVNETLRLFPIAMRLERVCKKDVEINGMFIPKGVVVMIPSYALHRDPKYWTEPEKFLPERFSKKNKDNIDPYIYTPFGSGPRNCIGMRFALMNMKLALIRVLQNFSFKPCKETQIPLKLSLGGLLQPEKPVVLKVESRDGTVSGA

Chain of Cytochrome P450 1A2 (Homo sapiens) (P05177 whole entry, looked up, canonical isoform): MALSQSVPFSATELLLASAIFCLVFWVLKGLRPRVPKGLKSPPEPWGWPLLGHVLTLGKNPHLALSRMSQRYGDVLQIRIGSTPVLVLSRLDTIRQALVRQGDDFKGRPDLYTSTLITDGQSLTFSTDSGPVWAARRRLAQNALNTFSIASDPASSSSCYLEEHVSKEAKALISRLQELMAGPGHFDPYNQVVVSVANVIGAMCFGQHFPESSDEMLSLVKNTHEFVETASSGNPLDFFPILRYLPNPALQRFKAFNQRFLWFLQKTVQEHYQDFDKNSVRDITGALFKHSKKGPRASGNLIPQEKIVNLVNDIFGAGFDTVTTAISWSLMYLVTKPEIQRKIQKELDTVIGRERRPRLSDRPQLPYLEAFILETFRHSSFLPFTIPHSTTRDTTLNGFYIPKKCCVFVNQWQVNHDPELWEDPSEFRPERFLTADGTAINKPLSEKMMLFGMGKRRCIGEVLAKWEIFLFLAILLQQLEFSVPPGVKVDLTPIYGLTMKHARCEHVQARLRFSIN
Chain of Cytochrome P450 2C9 (Homo sapiens) (P11712 whole entry, looked up, canonical isoform): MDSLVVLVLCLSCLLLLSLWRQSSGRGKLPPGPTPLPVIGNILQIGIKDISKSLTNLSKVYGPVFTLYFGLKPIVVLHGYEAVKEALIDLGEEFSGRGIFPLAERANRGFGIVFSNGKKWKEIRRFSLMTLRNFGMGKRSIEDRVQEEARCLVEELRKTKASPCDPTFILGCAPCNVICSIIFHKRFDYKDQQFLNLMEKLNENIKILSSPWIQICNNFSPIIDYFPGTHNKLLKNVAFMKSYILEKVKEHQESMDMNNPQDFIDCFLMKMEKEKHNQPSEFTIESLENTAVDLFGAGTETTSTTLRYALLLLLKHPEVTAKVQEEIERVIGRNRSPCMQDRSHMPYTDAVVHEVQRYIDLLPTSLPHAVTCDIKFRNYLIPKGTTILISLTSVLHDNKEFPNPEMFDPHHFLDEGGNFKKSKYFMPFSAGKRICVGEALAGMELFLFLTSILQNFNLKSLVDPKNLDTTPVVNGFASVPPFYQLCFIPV
Chain of Cytochrome P450 2D6 (Homo sapiens) (P10635 whole entry, looked up, canonical isoform): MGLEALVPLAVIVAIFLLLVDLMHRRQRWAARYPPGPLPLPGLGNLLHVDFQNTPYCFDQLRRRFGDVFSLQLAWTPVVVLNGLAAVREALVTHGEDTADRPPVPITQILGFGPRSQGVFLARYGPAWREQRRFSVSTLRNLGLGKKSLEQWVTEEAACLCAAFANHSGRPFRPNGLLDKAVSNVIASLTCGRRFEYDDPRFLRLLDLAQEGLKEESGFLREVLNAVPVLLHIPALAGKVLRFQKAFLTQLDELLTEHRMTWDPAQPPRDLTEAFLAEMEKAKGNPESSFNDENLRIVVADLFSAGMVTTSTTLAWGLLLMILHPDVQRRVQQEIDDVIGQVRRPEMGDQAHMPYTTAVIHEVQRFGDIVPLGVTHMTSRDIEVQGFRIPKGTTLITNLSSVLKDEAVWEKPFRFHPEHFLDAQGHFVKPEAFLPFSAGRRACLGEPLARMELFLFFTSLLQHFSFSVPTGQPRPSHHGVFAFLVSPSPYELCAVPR

Compound `O=C(C1CCN(c2ccc(Cl)cn2)CC1)N(CC1CC1)c1ccc(Cl)cc1` has an inhibition [1] of -19%, an inhibition [2] of -6% and an inhibition [3] of 2%. The inhibition [4] was -5%.
